Legend:
[1] = Determination of stability in plasma in vitro, human plasma (LC-MS/MS); format: in vitro ADME; details: same experimental conditions (human and mouse plasma)
Method in brief: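 Compound at 1 µM final in human or mouse plasma (N = 2) at 37 °C; aliquots taken at 0 and preset time points into ice-cold precipitant with internal standard. Remaining compound measured semi-quantitatively by LC-MS/MS as analyte/internal-standard peak-area ratio.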

[2] = Stability in animal lung tissue homogenate, skin tissue homogenate and aqueous humor; format: in vitro ADME
asthma model mice = assay: Anti-asthma pharmacodynamic experiment: airway hyperresponsiveness (Penh) after methacholine challenge; format: in vivo, female BALB/c mice; details: for Effects on airway hyperresponsiveness (Penh values) in mice: compared with the model group
Protocol: Pharmacological Example 4: Pharmacodynamic Experiment on Anti-Asthma
The suspensions were stored at room temperature protected from light until use.
Positive control drug: Budesonide Suspension for Inhalation (specification: 2 mL: 1 mg; AstraZeneca Inc.; Lot No. : 327392) was diluted with injection-grade sodium chloride solution to 0.3 mg/ml as the positive control drug, and stored at room temperature protected from light until use.
Sixty female BALB/c mice underwent a one-week adaptive feeding period. Ten mice were randomly selected as the blank control group, while 50 mice were selected to establish asthma models.
From days 21 to 23 after sensitization, the mice in the model group and drug administration group were exposed to a 30-minute aerosol challenge with 5% OVA, while the mice in the blank control group were exposed to normal saline aerosol for the same duration.
Airway responsiveness was measured in all groups of mice after the last challenge. The mice were placed into a plethysmography chamber, and baseline Penh values were recorded. Subsequently, the mice were challenged with aerosolized methacholine at concentrations from low to high of 0, 6.25, and 12.5 mg/mL, with an aerosol volume of 100 µ L each time for 60 s. […] Penh values were then recorded for 3 min and averaged to compare the airway responsiveness of each group of mice.
Statistical analysis was performed using SPSS software. Measurement data were expressed as mean ± standard deviation. One-way ANOVA was used for intergroup comparisons. For data with homogeneous variance, LSD test was used; for data with heterogeneous variance, Dunnett-t test was used. A value of P < 0.05 was considered statistically significant.

[3] = tested on: inflammatory cytokines IL-6 and IL-12; assay: Anti-asthma pharmacodynamic experiment: inflammatory cytokines in bronchoalveolar lavage fluid (ELISA); format: in vivo, female BALB/c mice; details: for Effects on inflammatory cytokines in bronchoalveolar lavage fluid of mice: compared with the model group
uveitis model rats = assay: Anti-uveitis pharmacodynamic experiment (LPS model): ocular pathological score; format: in vivo, male SD rats; details: for ocular abnormalities / ocular pathological score: compared with the model group
[4] = tested on: dry eye syndrome model New Zealand rabbits; assay: Dry eye syndrome experiment (benzalkonium chloride model): tear secretion test with phenol red cotton threads; format: in vivo, male New Zealand White rabbits; details: for tear secretion: compared with the model group
Protocol: Positive control drug: Fluorometholone Eye Drops (specification: 5 mL/5 mg; Santen Pharmaceutical (CHINA) Co., Ltd.; Lot No.: 1FM6625) was used as the positive control drug and stored at room temperature protected from light until use.
Thirty male New Zealand White rabbits (conventional grade) were prepared. Six rabbits were randomly selected as the blank control group, and the remaining animals were administered 0.1% benzalkonium chloride to the left eye twice daily (morning and evening) , 10 µL/animal each time. On day 6 of modeling, tear secretion was measured using phenol red cotton threads to determine whether the model was successfully established. […] During the administration, all animals except the blank control group were administered 10 µL of 0.1% benzalkonium chloride to the left eye once daily to maintain dry eye symptoms..
• Test time: D3, D7, D15; • Test animals: All animals were tested before grouping; all enrolled surviving animals were tested after administration; • Test method: Tear secretion was measured using phenol red cotton threads. The tear secretion test paper was folded and placed at the middle and outer 1/3 of the rabbit palpebral conjunctival sac for 1 min. The test paper was then removed, observed, and recorded for its wetting length. The test was repeated 3 times, and the values were averaged.
The normality and homogeneity of variance were tested by Levene's test. If there was no statistical significance (P > 0.05), one-way analysis of variance (ANOVA) was used for statistical analysis. If ANOVA was statistically significant (P ≤ 0.05), LSD test (parametric method) was used for comparative analysis. If the variance was heterogeneous (P ≤ 0.05), Kruskal-Wallis test was used. If the Kruskal-Wallis test was statistically significant (P ≤ 0.05), Dunnett's test (nonparametric method) was used for comparative analysis.

[5] = tested on: inflammatory bowel disease model rats; assay: Inflammatory bowel disease experiment (TNBS model): macroscopic injury score of the colon; format: in vivo; details: for inflammatory response on the intestinal surface / intestinal symptoms: compared with the model group
Method in brief: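 Colitis in rats was induced by intrarectal TNBS 50 mg/kg (20 mg/mL in 50% ethanol) after 24 h fasting. Dosing began 1 h before induction, then daily for 5 days. On day 5 colon was scored macroscopically for adhesion, obstruction, wall thickening, congestion and necrosis, with ANOVA/Dunnett or Kruskal-Wallis/Mann-Whitney statistics.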

IL-17 = assay: Psoriasis experiment (imiquimod model): inflammatory cytokine in serum (ELISA); format: in vivo, mice; details: for level of IL-17 / inflammatory cytokines in psoriasis model mice: compared with the model group
Protocol: Positive control drug: Fluticasone Propionate Cream (specification: 0.05% × 15 g, Zhejiang Xianju Pharmaceutical Co. Ltd., Lot No. 211106), stored at room temperature protected from light until use.
Adult mice were selected, and the skin of 2 cm × 3 cm on the back of mice was locally depilated. The mice in the model group and drug administration group were applied with 62.5 mg of 5% imiquimod cream on their back for modeling, while the mice in the blank control group were applied with medical petroleum jelly on their back daily. The above procedures were performed once a day for 7 consecutive days.
The mice in the drug administration group were applied with the corresponding drugs on their backs daily at a dose of 0.2 g per mouse, while the blank control group and the model group were only applied with 0.2 g of the test sample drug matrix. One hour after drug administration, the drugs were wiped off with sterile cotton swabs, followed by the application of imiquimod. The above procedures were performed once a day for 7 consecutive days.
After the PASI scoring on day 8 of modeling, blood was collected from the orbital sinus of mice and centrifuged at 3000 rpm for 10 min. The supernatant was extracted to measure the level of IL-17. All procedures were performed following the instructions of the ELISA kit.
Statistical analysis was performed using SPSS software, and the results were expressed as mean ± standard deviation. One-way ANOVA was used for intergroup comparisons. For data with homogeneous variance, the LSD test was used; for data with heterogeneous variance, the Dunnett-t test was used. A value of P < 0.05 was considered statistically significant.

epidermal layer in rats = assay: Adverse reactions of continuous dermal administration: thickness of the epidermal layer (H&E sections); format: in vivo, SD rats; details: for thickness of the epidermal layer after continuous dermal administration: compared with the blank control group
Method in brief: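 SPF SD rats (230-250 g, both sexes) received topical application on a shaved 5 cm × 6 cm back area twice daily for one week, controls receiving blank matrix. Epidermal thickness then quantified on H&E-stained back skin sections at ×40.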

[6] = bronchoalveolar lavage fluid, 0.3 mg/mL, 50 µL intratracheally once daily for 3 days

Structure (SMILES) | plasma instability [1] | stability in animal lung tissue homogenate, skin tissue homogenate, and aqueous humor [2] | Effects on airway hyperresponsiveness (Penh values) in mice (asthma model mice) | Effects on inflammatory cytokines in bronchoalveolar lavage fluid of mice [3] | ocular abnormalities / ocular pathological score (uveitis model rats) | tear secretion [4] | inflammatory response on the intestinal surface / intestinal symptoms [5] | level of IL-17 / inflammatory cytokines in psoriasis model mice (IL-17) | thickness of the epidermal layer after continuous dermal administration (epidermal layer in rats) | further results
C[C@]12C=CC(=O)C=C1CC[C@H]1[C@@H]3C[C@H]4OC(c5ccc(CSC6CCOC6=O)cc5)O[C@@]4(C(=O)CO)[C@@]3(C)C[C@H](O)[C@@]12Cl (stereo partly drawn) [Compound 23, (6aS,6bR,7S,8aS,8bS,11aR,12aS,12bS)-6b-Chloro-7-hydroxy-8b-(2-hydroxyacetyl)-6a,8a-dimethyl-10-(4-(((2-oxotetrahydrofuran-3-yl)thio)methyl)phenyl)-1,2,6a,6b,7,8,8a,8b,11a,12,12a,12b-do decahydro-4H-naphtho[2',1':4,5]indeno[1,2-d][1,3]dioxol-4-one] | exhibited the characteristic of plasma instability | relatively stable | significantly decreased the Penh values in mice | extremely significantly decreased the levels of IL-6 and IL-12 in mice | significantly improved the ocular abnormalities and reduced the ocular pathological score | significantly increased the tear secretion on day 15 | significantly inhibited the inflammatory response on the intestinal surface | significantly decreased the level of IL-17 | no significant changes in the thickness of the epidermal layer were observed | Penh values in mice, Methacholine concentration (mg/ml) 0 (asthma model mice; 0.3 mg/mL, 50 µL intratracheally once daily for 3 days, methacholine 0 mg/ml): 1.12 ± 0.30; Penh values in mice, Methacholine concentration (mg/ml) 6.25 (asthma model mice; 0.3 mg/mL, 50 µL intratracheally once daily for 3 days, methacholine 6.25 mg/ml): 1.55 ± 0.29; Penh values in mice, Methacholine concentration (mg/ml) 12.5 (asthma model mice; 0.3 mg/mL, 50 µL intratracheally once daily for 3 days, methacholine 12.5 mg/ml): 1.84 ± 0.38; IL-6 [3, 6]: 11.1 ± 5.5 pg/mL; IL-12 [3, 6]: 7.0 ± 3.9 pg/mL; Ocular pathological score (uveitis model rats; 1 mg/mL, 40 µL/eye, 3 times a day for 2 days): 7.0 ± 0.5; Wetting length of phenol red cotton threads (mm) D0 ([4]; D0, 1 mg/mL, 50 µL/eye, 3 times a day for 14 days): 28.24 ± 6.22 mm; Wetting length of phenol red cotton threads (mm) D3 ([4]; D3, 1 mg/mL, 50 µL/eye, 3 times a day for 14 days): 29.4 ± 4.63 mm; Wetting length of phenol red cotton threads (mm) D7 ([4]; D7, 1 mg/mL, 50 µL/eye, 3 times a day for 14 days): 31.88 ± 6.20 mm; Wetting length of phenol red cotton threads (mm) D15 ([4]; D15, 1 mg/mL, 50 µL/eye, 3 times a day for 14 days): 36.05 ± 5.74" mm; Macroscopic injury score ([5]; colon, day 5 after TNBS, 2 mg/kg once a day (compounds intraintestinally, dexamethasone by gavage)): 4.83 ± 1.10"; IL-17 (IL-17; serum, day 8 of modeling, 0.2 g cream per mouse daily for 7 days): 19.56 ± 8.13 pg/mL; Epidermal layer thickness (µm) (epidermal layer in rats; 100 mg cream on the back twice a day for a week (compounds 1 mg/g, Compound Dexamethasone Acetate 0.75 mg/g)): 24.3 ± 1.1 µm
C[C@]12C=CC(=O)C=C1CC[C@H]1[C@@H]3C[C@H]4OC(c5ccc(COC6CCOC6=O)cc5)O[C@@]4(C(=O)CO)[C@@]3(C)C[C@H](O)[C@@]12Cl (stereo partly drawn) [Compound 22, (6aS,6bR,7S,8aS,8bS,11aR,12aS,12bS)-6b-Chloro-7-hydroxy-8b-(2-hydroxyacetyl)-6a,8a-dimethyl-10-(4-(((2-oxotetrahydrofuran-3-yl)oxy)methyl)phenyl)-1,2,6a,6b,7,8,8a,8b,11a,12,12a,12b-do decahydro-4H-naphtho[2',1':4,5]indeno[1,2-d][1,3]dioxol-4-one] | exhibited the characteristic of plasma instability | relatively stable | significantly decreased the Penh values in mice | pharmacological effects similar to those of compound 23 | significantly improved ocular abnormalities | significantly increased the tear secretion | significantly alleviated the intestinal symptoms in inflammatory bowel disease model rats | significantly inhibited inflammatory cytokines in the skin of psoriasis model mice | no significant changes in the thickness of the epidermal layer observed | 

Source: patent EP4635969A1, “NOVEL GLUCOCORTICOID, METHOD FOR PREPARING SAME, AND USE THEREOF” (Tianjin Pharmaceutical Biotechnology Co., Ltd., priority 2022, dated 2024)
